Measurements published in ChEMBL document CHEMBL1147701, “Novel 4-anilinoquinazolines with C-6 carbon-linked side chains: synthesis and structure-activity relationship of a series of potent, orally active, EGF receptor tyrosine kinase inhibitors” (Bioorg Med Chem Lett, 2006).

Biological target: Glycogen synthase kinase-3 beta (Homo sapiens, UniProt P49841)
Assay: Inhibition of GSK3-beta

Glycogen synthase kinase-3 beta, sequence (P49841 whole entry): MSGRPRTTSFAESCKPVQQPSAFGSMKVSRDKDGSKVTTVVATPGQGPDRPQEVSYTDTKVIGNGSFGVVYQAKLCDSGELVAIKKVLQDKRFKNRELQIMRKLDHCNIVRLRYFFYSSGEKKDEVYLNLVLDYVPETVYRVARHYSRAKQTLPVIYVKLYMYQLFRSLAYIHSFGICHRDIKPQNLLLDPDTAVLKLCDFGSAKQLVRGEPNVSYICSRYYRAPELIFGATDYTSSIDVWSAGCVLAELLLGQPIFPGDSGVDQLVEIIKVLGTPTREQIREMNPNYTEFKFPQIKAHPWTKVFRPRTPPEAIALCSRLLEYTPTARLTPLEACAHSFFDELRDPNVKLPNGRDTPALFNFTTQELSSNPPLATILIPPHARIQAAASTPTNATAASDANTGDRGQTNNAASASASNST

IC50, > 10 µM:
COc1cc2ncnc(Nc3cccc(Cl)c3F)c2cc1CN(C)[C@@H](CN(C)C)C(N)=O, COc1cc2ncnc(Nc3ccc(F)c(Cl)c3)c2cc1CN1CCC[C@H]1C(N)=O, COc1cc2ncnc(Nc3cccc(Cl)c3F)c2cc1CN1CCC[C@@H]1C(=O)N(C)C, COCCN(Cc1cc2c(Nc3cccc(Cl)c3F)ncnc2cc1OC)[C@@H](C)C(N)=O, CNC(=O)[C@H]1CCCN1Cc1cc2c(Nc3cccc(Cl)c3F)ncnc2cc1OC, COc1cc2ncnc(Nc3cccc(Cl)c3F)c2cc1CN1CCCC1

Biological target: c-Jun N-terminal kinase, JNK (Homo sapiens, UniProt P45983+P53779+P45984)
Assay: Inhibition of JNK
Format: protein assay

IC50, > 10 µM:
COc1cc2ncnc(Nc3cccc(Cl)c3F)c2cc1CN(C)[C@@H](CN(C)C)C(N)=O, COc1cc2ncnc(Nc3ccc(F)c(Cl)c3)c2cc1CN1CCC[C@H]1C(N)=O, COc1cc2ncnc(Nc3cccc(Cl)c3F)c2cc1CN1CCC[C@@H]1C(=O)N(C)C, COCCN(Cc1cc2c(Nc3cccc(Cl)c3F)ncnc2cc1OC)[C@@H](C)C(N)=O, CNC(=O)[C@H]1CCCN1Cc1cc2c(Nc3cccc(Cl)c3F)ncnc2cc1OC, COc1cc2ncnc(Nc3cccc(Cl)c3F)c2cc1CN1CCCC1

Biological target: MAP kinase p38 (Homo sapiens, UniProt O15264+Q15759+Q16539+P53778)

IC50, > 10 µM:
COc1cc2ncnc(Nc3cccc(Cl)c3F)c2cc1CN(C)[C@@H](CN(C)C)C(N)=O, COc1cc2ncnc(Nc3ccc(F)c(Cl)c3)c2cc1CN1CCC[C@H]1C(N)=O, CNC(=O)[C@H]1CCCN1Cc1cc2c(Nc3cccc(Cl)c3F)ncnc2cc1OC

Biological target: cAMP-dependent protein kinase (PKA) (Homo sapiens, UniProt P22694+P17612+P22612)
Assay: Inhibition of PKA
Format: protein assay

IC50, > 10 µM:
COc1cc2ncnc(Nc3cccc(Cl)c3F)c2cc1CN(C)[C@@H](CN(C)C)C(N)=O, COc1cc2ncnc(Nc3ccc(F)c(Cl)c3)c2cc1CN1CCC[C@H]1C(N)=O, COc1cc2ncnc(Nc3cccc(Cl)c3F)c2cc1CN1CCC[C@@H]1C(=O)N(C)C, COCCN(Cc1cc2c(Nc3cccc(Cl)c3F)ncnc2cc1OC)[C@@H](C)C(N)=O, CNC(=O)[C@H]1CCCN1Cc1cc2c(Nc3cccc(Cl)c3F)ncnc2cc1OC, COc1cc2ncnc(Nc3cccc(Cl)c3F)c2cc1CN1CCCC1

Biological target: T1, Serine/threonine-protein kinase Sgk1 (Homo sapiens, UniProt O00141)
T1 sequence (O00141 whole entry): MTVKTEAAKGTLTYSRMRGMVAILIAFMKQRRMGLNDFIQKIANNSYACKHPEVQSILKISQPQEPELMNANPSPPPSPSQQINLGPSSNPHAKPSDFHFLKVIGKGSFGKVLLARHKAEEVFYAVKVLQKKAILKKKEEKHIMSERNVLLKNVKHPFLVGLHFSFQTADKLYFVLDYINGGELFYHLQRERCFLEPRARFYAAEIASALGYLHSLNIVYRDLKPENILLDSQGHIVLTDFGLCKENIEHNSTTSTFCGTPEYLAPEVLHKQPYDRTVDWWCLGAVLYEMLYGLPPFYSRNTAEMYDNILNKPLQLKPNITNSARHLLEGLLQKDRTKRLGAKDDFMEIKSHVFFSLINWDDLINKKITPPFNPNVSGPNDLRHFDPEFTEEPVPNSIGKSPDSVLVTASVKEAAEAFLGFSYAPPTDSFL
Assay: Inhibition of SGK

IC50, > 10 µM:
COc1cc2ncnc(Nc3cccc(Cl)c3F)c2cc1CN(C)[C@@H](CN(C)C)C(N)=O, COc1cc2ncnc(Nc3ccc(F)c(Cl)c3)c2cc1CN1CCC[C@H]1C(N)=O, COc1cc2ncnc(Nc3cccc(Cl)c3F)c2cc1CN1CCC[C@@H]1C(=O)N(C)C, COCCN(Cc1cc2c(Nc3cccc(Cl)c3F)ncnc2cc1OC)[C@@H](C)C(N)=O, CNC(=O)[C@H]1CCCN1Cc1cc2c(Nc3cccc(Cl)c3F)ncnc2cc1OC, COc1cc2ncnc(Nc3cccc(Cl)c3F)c2cc1CN1CCCC1

Biological target: Vascular endothelial growth factor receptor 2 (Homo sapiens, UniProt P35968)
Sequence (P35968 whole entry): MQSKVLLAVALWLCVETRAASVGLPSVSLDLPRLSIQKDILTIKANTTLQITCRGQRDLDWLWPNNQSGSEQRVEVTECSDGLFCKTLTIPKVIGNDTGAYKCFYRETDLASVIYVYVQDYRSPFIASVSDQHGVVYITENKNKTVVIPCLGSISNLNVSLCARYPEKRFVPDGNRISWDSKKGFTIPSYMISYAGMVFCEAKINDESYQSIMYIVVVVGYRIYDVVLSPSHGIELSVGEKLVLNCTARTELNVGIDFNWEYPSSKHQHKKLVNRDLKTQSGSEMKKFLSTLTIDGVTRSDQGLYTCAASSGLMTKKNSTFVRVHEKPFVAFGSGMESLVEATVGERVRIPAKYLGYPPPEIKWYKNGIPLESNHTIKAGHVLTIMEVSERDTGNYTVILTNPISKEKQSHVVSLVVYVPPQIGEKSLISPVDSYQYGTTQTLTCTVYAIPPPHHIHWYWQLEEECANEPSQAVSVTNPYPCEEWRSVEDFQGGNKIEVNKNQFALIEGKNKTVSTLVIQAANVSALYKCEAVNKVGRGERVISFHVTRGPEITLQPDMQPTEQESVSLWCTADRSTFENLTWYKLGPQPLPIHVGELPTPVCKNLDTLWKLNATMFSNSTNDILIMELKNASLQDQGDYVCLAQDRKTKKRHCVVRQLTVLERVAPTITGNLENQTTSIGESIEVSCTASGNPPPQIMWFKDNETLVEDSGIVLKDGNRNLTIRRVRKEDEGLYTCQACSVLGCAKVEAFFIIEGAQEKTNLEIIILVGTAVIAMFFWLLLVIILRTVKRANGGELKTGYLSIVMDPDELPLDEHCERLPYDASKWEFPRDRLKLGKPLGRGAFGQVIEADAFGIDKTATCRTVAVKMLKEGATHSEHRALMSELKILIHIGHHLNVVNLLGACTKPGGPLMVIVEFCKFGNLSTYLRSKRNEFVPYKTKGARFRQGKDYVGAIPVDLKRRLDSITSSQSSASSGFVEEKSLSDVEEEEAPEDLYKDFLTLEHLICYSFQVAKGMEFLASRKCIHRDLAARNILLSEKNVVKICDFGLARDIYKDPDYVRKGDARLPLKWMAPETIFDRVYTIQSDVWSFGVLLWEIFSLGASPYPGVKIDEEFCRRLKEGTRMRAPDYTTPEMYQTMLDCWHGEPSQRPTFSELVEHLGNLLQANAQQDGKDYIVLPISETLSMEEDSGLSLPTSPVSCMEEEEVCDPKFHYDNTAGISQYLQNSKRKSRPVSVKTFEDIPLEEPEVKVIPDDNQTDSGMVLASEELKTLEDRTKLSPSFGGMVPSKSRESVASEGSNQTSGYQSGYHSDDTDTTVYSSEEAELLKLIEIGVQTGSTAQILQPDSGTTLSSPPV

IC50, > 10 µM:
COc1cc2ncnc(Nc3cccc(Cl)c3F)c2cc1CN(C)[C@@H](CN(C)C)C(N)=O, COc1cc2ncnc(Nc3ccc(F)c(Cl)c3)c2cc1CN1CCC[C@H]1C(N)=O, COc1cc2ncnc(Nc3cccc(Cl)c3F)c2cc1CN1CCC[C@@H]1C(=O)N(C)C, COCCN(Cc1cc2c(Nc3cccc(Cl)c3F)ncnc2cc1OC)[C@@H](C)C(N)=O, CNC(=O)[C@H]1CCCN1Cc1cc2c(Nc3cccc(Cl)c3F)ncnc2cc1OC, COc1cc2ncnc(Nc3cccc(Cl)c3F)c2cc1CN1CCCC1

Biological target: Tyrosine-protein kinase Lck (Homo sapiens, UniProt P06239)
Sequence (P06239 whole entry): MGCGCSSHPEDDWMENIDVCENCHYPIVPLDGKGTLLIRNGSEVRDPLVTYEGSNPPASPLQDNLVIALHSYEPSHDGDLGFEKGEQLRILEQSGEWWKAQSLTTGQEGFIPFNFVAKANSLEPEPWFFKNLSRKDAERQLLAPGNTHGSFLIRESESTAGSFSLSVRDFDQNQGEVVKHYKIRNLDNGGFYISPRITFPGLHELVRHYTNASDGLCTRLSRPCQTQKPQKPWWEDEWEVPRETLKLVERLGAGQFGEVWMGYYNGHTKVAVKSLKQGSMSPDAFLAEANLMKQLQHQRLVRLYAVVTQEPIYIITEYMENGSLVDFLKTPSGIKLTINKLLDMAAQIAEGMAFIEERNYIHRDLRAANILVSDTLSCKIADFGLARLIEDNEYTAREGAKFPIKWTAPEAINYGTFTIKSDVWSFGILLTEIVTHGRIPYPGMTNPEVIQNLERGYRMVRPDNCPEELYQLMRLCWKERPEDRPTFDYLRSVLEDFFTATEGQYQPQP

IC50, > 10 µM:
COc1cc2ncnc(Nc3cccc(Cl)c3F)c2cc1CN(C)[C@@H](CN(C)C)C(N)=O, COCCN(Cc1cc2c(Nc3cccc(Cl)c3F)ncnc2cc1OC)[C@@H](C)C(N)=O, COc1cc2ncnc(Nc3cccc(Cl)c3F)c2cc1CN1CCCC1

Biological target: Mitogen-activated protein kinase 1 (Homo sapiens, UniProt P28482)
Sequence (P28482 whole entry): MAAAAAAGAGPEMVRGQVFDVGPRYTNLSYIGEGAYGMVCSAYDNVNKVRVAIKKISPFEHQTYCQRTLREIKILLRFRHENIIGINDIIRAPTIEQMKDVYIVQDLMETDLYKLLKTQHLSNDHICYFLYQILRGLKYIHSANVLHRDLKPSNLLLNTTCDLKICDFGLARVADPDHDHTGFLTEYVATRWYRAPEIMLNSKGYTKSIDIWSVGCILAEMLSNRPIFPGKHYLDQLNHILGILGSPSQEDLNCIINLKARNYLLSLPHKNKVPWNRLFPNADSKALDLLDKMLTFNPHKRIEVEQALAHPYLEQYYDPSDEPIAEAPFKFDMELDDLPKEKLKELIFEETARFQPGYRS
Assay: Inhibition of MAPK

IC50, > 10 µM:
COc1cc2ncnc(Nc3cccc(Cl)c3F)c2cc1CN(C)[C@@H](CN(C)C)C(N)=O, COc1cc2ncnc(Nc3ccc(F)c(Cl)c3)c2cc1CN1CCC[C@H]1C(N)=O, COc1cc2ncnc(Nc3cccc(Cl)c3F)c2cc1CN1CCC[C@@H]1C(=O)N(C)C, COCCN(Cc1cc2c(Nc3cccc(Cl)c3F)ncnc2cc1OC)[C@@H](C)C(N)=O, CNC(=O)[C@H]1CCCN1Cc1cc2c(Nc3cccc(Cl)c3F)ncnc2cc1OC, COc1cc2ncnc(Nc3cccc(Cl)c3F)c2cc1CN1CCCC1

Biological target: Rho-associated protein kinase 2 (Homo sapiens, UniProt O75116)
Sequence (O75116 whole entry): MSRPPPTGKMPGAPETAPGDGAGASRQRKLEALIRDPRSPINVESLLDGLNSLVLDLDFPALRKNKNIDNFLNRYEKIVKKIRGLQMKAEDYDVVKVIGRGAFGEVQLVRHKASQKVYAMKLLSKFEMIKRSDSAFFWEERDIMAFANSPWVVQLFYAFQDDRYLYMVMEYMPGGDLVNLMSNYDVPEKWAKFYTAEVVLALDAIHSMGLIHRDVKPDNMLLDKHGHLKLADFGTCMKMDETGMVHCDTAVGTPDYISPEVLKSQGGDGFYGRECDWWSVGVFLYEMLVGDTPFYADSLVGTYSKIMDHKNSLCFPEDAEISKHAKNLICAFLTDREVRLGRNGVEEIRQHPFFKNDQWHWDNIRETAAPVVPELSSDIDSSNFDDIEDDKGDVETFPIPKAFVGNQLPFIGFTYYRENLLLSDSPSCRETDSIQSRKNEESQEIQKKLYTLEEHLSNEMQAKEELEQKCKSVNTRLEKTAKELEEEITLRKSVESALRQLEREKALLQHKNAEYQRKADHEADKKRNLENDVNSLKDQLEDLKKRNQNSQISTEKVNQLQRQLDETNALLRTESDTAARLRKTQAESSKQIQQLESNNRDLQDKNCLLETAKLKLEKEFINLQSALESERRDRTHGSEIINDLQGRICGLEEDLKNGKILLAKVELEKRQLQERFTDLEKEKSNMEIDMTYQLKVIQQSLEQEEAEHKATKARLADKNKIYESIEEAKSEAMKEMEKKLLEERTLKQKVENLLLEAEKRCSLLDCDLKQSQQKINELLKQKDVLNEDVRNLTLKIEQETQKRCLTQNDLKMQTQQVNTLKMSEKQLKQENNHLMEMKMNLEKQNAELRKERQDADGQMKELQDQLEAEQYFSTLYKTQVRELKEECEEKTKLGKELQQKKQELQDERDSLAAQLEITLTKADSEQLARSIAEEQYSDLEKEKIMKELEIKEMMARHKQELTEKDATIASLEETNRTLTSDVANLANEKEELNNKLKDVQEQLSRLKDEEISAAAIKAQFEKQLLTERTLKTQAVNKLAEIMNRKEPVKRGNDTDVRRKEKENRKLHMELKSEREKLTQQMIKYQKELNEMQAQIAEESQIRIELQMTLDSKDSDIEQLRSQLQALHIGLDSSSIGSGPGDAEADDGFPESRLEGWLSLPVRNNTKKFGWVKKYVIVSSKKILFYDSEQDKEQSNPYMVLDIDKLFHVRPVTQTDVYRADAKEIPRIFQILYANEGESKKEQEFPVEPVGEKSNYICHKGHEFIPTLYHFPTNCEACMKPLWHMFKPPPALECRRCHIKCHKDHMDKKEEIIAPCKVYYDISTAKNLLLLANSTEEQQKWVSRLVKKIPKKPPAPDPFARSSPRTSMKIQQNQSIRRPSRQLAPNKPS
Assay: Inhibition of ROCK2

IC50, > 10 µM:
COc1cc2ncnc(Nc3cccc(Cl)c3F)c2cc1CN(C)[C@@H](CN(C)C)C(N)=O, COc1cc2ncnc(Nc3ccc(F)c(Cl)c3)c2cc1CN1CCC[C@H]1C(N)=O, COc1cc2ncnc(Nc3cccc(Cl)c3F)c2cc1CN1CCC[C@@H]1C(=O)N(C)C, COCCN(Cc1cc2c(Nc3cccc(Cl)c3F)ncnc2cc1OC)[C@@H](C)C(N)=O, CNC(=O)[C@H]1CCCN1Cc1cc2c(Nc3cccc(Cl)c3F)ncnc2cc1OC, COc1cc2ncnc(Nc3cccc(Cl)c3F)c2cc1CN1CCCC1

Biological target: AMP-activated protein kinase, AMPK
Assay: Inhibition of AMPK
Format: protein-complex assay

IC50, > 10 µM:
COc1cc2ncnc(Nc3cccc(Cl)c3F)c2cc1CN(C)[C@@H](CN(C)C)C(N)=O, COc1cc2ncnc(Nc3ccc(F)c(Cl)c3)c2cc1CN1CCC[C@H]1C(N)=O, COc1cc2ncnc(Nc3cccc(Cl)c3F)c2cc1CN1CCC[C@@H]1C(=O)N(C)C, COCCN(Cc1cc2c(Nc3cccc(Cl)c3F)ncnc2cc1OC)[C@@H](C)C(N)=O, CNC(=O)[C@H]1CCCN1Cc1cc2c(Nc3cccc(Cl)c3F)ncnc2cc1OC, COc1cc2ncnc(Nc3cccc(Cl)c3F)c2cc1CN1CCCC1

Biological target: Proto-oncogene tyrosine-protein kinase Src (Homo sapiens, UniProt P12931)
Sequence (P12931 2-536 limits assumed): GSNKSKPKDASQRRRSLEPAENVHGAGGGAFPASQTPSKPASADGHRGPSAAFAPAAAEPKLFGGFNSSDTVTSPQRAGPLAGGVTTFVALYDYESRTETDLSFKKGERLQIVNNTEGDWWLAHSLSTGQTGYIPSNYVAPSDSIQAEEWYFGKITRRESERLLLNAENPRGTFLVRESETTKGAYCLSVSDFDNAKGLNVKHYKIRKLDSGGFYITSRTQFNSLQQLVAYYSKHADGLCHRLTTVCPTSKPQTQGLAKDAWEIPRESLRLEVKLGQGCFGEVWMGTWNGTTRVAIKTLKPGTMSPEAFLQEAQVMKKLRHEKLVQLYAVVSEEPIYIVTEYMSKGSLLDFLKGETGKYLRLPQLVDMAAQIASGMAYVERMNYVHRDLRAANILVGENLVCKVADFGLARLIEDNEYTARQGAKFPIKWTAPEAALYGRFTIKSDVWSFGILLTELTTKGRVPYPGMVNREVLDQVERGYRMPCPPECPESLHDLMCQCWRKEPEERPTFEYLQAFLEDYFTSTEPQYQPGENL
Assay: Inhibition of Src

IC50, > 10 µM:
COc1cc2ncnc(Nc3cccc(Cl)c3F)c2cc1CN(C)[C@@H](CN(C)C)C(N)=O, COc1cc2ncnc(Nc3ccc(F)c(Cl)c3)c2cc1CN1CCC[C@H]1C(N)=O, COc1cc2ncnc(Nc3cccc(Cl)c3F)c2cc1CN1CCC[C@@H]1C(=O)N(C)C, COCCN(Cc1cc2c(Nc3cccc(Cl)c3F)ncnc2cc1OC)[C@@H](C)C(N)=O, CNC(=O)[C@H]1CCCN1Cc1cc2c(Nc3cccc(Cl)c3F)ncnc2cc1OC, COc1cc2ncnc(Nc3cccc(Cl)c3F)c2cc1CN1CCCC1

Biological target: T2, Serine/threonine-protein kinase Chk1 (Homo sapiens, UniProt O14757)
T2 sequence (O14757 whole entry): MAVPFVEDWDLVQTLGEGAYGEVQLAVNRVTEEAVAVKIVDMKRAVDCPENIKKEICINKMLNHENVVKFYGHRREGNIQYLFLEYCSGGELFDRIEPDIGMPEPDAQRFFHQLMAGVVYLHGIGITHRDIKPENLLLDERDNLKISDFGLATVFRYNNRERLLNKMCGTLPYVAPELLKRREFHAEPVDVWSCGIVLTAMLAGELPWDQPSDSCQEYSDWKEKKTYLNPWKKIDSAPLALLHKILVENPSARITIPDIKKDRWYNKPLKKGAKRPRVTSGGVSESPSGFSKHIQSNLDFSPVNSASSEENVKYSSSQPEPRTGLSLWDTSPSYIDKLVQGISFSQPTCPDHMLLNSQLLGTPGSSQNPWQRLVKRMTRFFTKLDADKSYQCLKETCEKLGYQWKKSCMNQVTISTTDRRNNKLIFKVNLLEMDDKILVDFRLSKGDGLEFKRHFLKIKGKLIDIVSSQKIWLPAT
Assay: Inhibition of CHK1

IC50, > 10 µM:
COc1cc2ncnc(Nc3cccc(Cl)c3F)c2cc1CN(C)[C@@H](CN(C)C)C(N)=O, COc1cc2ncnc(Nc3ccc(F)c(Cl)c3)c2cc1CN1CCC[C@H]1C(N)=O, COc1cc2ncnc(Nc3cccc(Cl)c3F)c2cc1CN1CCC[C@@H]1C(=O)N(C)C, COCCN(Cc1cc2c(Nc3cccc(Cl)c3F)ncnc2cc1OC)[C@@H](C)C(N)=O, CNC(=O)[C@H]1CCCN1Cc1cc2c(Nc3cccc(Cl)c3F)ncnc2cc1OC, COc1cc2ncnc(Nc3cccc(Cl)c3F)c2cc1CN1CCCC1

System: not listed separately
Assay: Inhibition of CDK

IC50, > 10 µM:
COc1cc2ncnc(Nc3cccc(Cl)c3F)c2cc1CN(C)[C@@H](CN(C)C)C(N)=O, COc1cc2ncnc(Nc3ccc(F)c(Cl)c3)c2cc1CN1CCC[C@H]1C(N)=O
